The values below come from US11666570B2, “Diagnosis and regulation of epidermal differentiation and cancer cell activity” (The Board of Trustees of the Leland Stanford Junior …, priority 2019, dated 2023).

Residues, ends and D or L forms follow the SMILES beside them. *: point of attachment. Cbz = O=C(OCc1ccccc1)*

What all share (type): cell-based
Series [1] concerns RET. As to the kind of experiment: RET expression in normal human skin organoids treated with proteasome inhibitor (Western blot). The settings on record: normal skin organoids grown 3 days on dermis, MG132 20 μM for 12 hrs vs DMSO. The source says: Given the proximity of CacyBP and RET, we wondered whether RET stability in the skin might be regulated by ubiquitination. Fluorescent PLA signal generated by RET and ubiquitin proximity was abolished in MAB21L4-ablated epidermis using two independent sgRNAs (FIG. 5f,g). […] Loss of MAB21L4, such as occurs in cancer, would stabilize RET by preventing its Siah1-mediated degradation and may explain RET upregulation in SCC.
(§1) Human Skin Organoids and Skin Xenografts Generation of human skin organoids was performed as previously described. Briefly, 1×10^6 keratinocytes were seeded onto a 1 cm^2 section of devitalized human dermis and cultured at the air-liquid interface for up to 6 days for differentiation studies. To generate organotypic invasive epidermal neoplasia, devitalized human dermis was populated with human primary fibroblasts at least 1 week prior to keratinocyte seeding. Keratinocytes were transduced with oncogenic HRas as well as Cdk4 and seeded onto fibroblast-containing dermis. Neoplastic tissues were harvested for analysis up to 14 days post-seeding.
Western Blotting Cells and organoids were both lysed in RIPA buffer (Thermo Fisher Scientific) supplemented with phosphatase inhibitor and protease inhibitor cocktails (Sigma-Aldrich). […]
On the technique in general: In western blotting, separated proteins are transferred to a membrane and probed.

Series [2] has as its system oncogenic Ras-transformed human skin organoids. Nature of the series: Neoplastic invasion in human skin organoids transformed by oncogenic Ras and Cdk4.
Excerpt: (§2) As loss of differentiation may be coupled to other cancer-enabling behaviors, we next considered the therapeutic implications of aberrant RET activation in SCC. […] We next used MAB21L4-intact or MAB21L4-ablated primary human keratinocytes to generate skin organoids programmed to undergo invasive neoplasia by oncogenic Ras and Cdk4. These neoplastic tissues were maintained in culture medium containing BLU-667 to investigate the contribution of RET to SCC development.
(§3) To test this, we assessed neoplastic invasion in human skin organoids with BLU-667 added to the culture medium after early malignant transformation occurred. […] Human skin tissues undergoing malignant transformation by enforced expression of oncogenic Ras and Cdk4 were then subjected to BLU-667 treatment following the onset of early neoplastic invasion.
as §1
Immunofluorescence Human skin organoids were embedded in Optimal Cutting Temperature (OCT) compound (Sakura Finetek) and 7 μm tissue sections were mounted onto polylysine slides (Thermo Scientific). Tissue cryosections were fixed in 100% methanol at −20° C. for 10 min and subsequently permeabilized by incubation with 0.1% Triton X-100 (Sigma-Aldrich) in PBS. The tissues were then incubated for 30 minutes at room temperature with blocking buffer (horse serum diluted 1:10 in PBS) and then for 1 hour with primary antibodies diluted in 0.05% Triton X-100 (Sigma-Aldrich) and 1:100 horse serum in PBS. […]
Images of several zstacks were acquired and the maximum intensity projection image was generated by using the Fiji-ImageJ package. Invasion index was calculated as integrated density of the Keratin 5 staining underneath the basement membrane divided by the length of the basement membrane. Integrated density and basement membrane length were both analyzed using the Fiji-ImageJ package. The invasion depth was calculated as the distance between the basement membrane and the most distant invading cell in each field of view analyzed. The distance between the basement membrane and the most distant invading cell was analyzed in 3 areas of each field of view using the Fiji-ImageJ package and was averaged. […]

The next series relates to human skin organoids. Nature of the series: Stratification and epidermal thickness of organotypic human epidermis under BLU-667 (immunofluorescence). The settings on record: vs vehicle (DMSO).
Excerpt: as §2, §3
Human Skin Organoids and Skin Xenografts Generation of human skin organoids was performed as previously described. Briefly, 1×10^6 keratinocytes were seeded onto a 1 cm^2 section of devitalized human dermis and cultured at the air-liquid interface for up to 6 days for differentiation studies. To generate organotypic invasive epidermal neoplasia, devitalized human dermis was populated with human primary fibroblasts at least 1 week prior to keratinocyte seeding. Keratinocytes were transduced with oncogenic HRas as well as Cdk4 and seeded onto fibroblast-containing dermis. […]

Series [3] addresses T1, RET (Homo sapiens, UniProt P07949).
T1 construct: endogenous in cells; host or cells: human skin organoids from primary human keratinocytes seeded on devitalized human dermis
Nature of the series: RET phosphorylation at Y1062 in non-transformed human skin organoids (Western blot). The settings on record: non-transformed human skin organoids grown 7 days on dermis, BLU-667 15 nM vs DMSO.
Excerpt: as §2
Human Skin Organoids and Skin Xenografts Generation of human skin organoids was performed as previously described. […] To generate organotypic invasive epidermal neoplasia, devitalized human dermis was populated with human primary fibroblasts at least 1 week prior to keratinocyte seeding. Keratinocytes were transduced with oncogenic HRas as well as Cdk4 and seeded onto fibroblast-containing dermis. Neoplastic tissues were harvested for analysis up to 14 days post-seeding.
Western Blotting Cells and organoids were both lysed in RIPA buffer (Thermo Fisher Scientific) supplemented with phosphatase inhibitor and protease inhibitor cocktails (Sigma-Aldrich). For human skin organoids, the epidermis was separated from the dermis, immersed in RIPA buffer, and subjected to 4 cycles of disruption using the gentleMACS Dissociator (Miltenyi Biotec). […]

The mark [4] stands for this setting: MAB21L4-intact or MAB21L4-ablated Ras/Cdk4 organoids, 7 days in medium containing BLU-667 15 nM.
The mark [5] stands for this setting: Ras/Cdk4 organoids, BLU-667 15 nM initiated on day 7 after early invasion, analysed day 14, vs vehicle.

T1 sequence (P07949 29-1114): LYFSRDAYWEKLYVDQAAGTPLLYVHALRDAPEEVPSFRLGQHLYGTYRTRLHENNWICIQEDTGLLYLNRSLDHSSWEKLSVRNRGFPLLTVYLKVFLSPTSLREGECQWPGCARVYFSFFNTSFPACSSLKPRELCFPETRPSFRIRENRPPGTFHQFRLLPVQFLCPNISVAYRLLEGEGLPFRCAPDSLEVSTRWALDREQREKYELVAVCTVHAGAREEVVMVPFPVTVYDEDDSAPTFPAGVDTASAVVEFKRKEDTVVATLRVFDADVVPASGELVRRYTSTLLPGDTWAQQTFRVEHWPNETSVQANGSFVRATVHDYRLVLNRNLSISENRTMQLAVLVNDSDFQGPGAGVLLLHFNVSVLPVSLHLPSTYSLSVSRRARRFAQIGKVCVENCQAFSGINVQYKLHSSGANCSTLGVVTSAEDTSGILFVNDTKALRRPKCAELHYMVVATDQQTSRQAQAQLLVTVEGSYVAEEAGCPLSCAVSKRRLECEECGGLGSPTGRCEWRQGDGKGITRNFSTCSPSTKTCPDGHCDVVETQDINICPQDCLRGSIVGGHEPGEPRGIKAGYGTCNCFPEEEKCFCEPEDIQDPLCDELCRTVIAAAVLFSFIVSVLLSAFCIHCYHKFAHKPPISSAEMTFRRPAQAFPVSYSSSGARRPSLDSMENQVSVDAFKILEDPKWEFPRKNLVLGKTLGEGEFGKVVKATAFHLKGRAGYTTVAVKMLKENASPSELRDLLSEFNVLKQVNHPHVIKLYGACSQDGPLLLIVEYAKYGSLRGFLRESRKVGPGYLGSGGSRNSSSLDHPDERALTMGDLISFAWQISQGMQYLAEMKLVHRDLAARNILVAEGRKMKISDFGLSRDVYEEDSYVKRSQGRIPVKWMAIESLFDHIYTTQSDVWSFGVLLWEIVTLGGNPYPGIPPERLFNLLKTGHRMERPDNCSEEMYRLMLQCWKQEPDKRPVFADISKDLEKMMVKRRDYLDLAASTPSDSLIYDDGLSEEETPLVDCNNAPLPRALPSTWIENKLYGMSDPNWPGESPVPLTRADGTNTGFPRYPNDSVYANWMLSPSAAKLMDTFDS

Turning to `CC(C)C[C@@H](C=O)NC(=O)[C@H](CC(C)C)NC(=O)[C@H](CC(C)C)NC(=O)OCc1ccccc1` [MG132] (Cbz-Leu-Leu-Leu-aldehyde), the RET expression result in the series on RET [1] is recorded as “RET accumulation”.

As to `CO[C@]1(C(=O)N[C@@H](C)c2ccc(-n3cc(F)cn3)nc2)CC[C@H](c2nc(C)cc(Nc3cc(C)[nH]n3)n2)CC1` [BLU-667], in series [2] (setting [4]), the basement membrane degradation entry is reported as “prevented basement membrane degradation” and the “neoplastic invasion (invasion index)” value was “suppressed invasion accelerated by MAB21L4 loss”. Also, in series [2] (setting [5]), the “keratinocytes below the basement membrane (invasion index), established invasion” value is “fewer keratinocytes below the basement membrane” and the “tumor infiltration depth (invasion depth), established invasion” value is on record as “reduction in tumor infiltration depth”. The “epidermal stratification and thickness” value in the series with human skin organoids (late-onset treatment: BLU-667 15 nM initiated on day 7, 14 days of growth) was “did not adversely affect epidermal stratification and thickness”. Further, the “stratification and epidermal thickness” value in the series on human skin organoids (organoids cultured in continuous presence of BLU-667 15 nM, 7 days) was “did not differ substantially from vehicle controls”. Moreover, the “RET phosphorylation at Y1062 (suppression of RET signaling)” value on RET [3] is recorded as “reduction in RET phosphorylation at Y1062”.
